Data on 13 molecules can be found in patent US7160897B2, “Therapeutic compounds” (SmithKline Beecham Corporation, priority 2000, dated 2007).

pIC50: −log10 of the molar value.

This assay concerns HSV-1. As to the kind of experiment: HSV-1 replication in Vero 76 cells, viral DNA hybridization capture assay. The assay is classed as cell-based, herpes simplex virus 1. The settings on record: Human alphaherpesvirus 1; HSV-1 infected Vero 76 cells, MOI=0.001, 40–48 hours incubation, HSV DNA detected by hybridization/chemiluminescence. As to the method: Vero 76 cells were maintained in MEM with Earle's salts, L-glutamine, 8% FBS (Hyclone, A-1111-L) and 100 units/mL Penicillin-100 μg/mL Streptomycin. For assay conditions, FBS was reduced to 2%. Cells are seeded into 96-well tissue culture plates at a density of 5×10^4 cells/well after being incubated for 45 min at 37° C. in the presence of HSV-1 or HSV-2 (MOI=0.001). Test compounds are added to the wells and the plates are incubated at 37° C. for 40–48 hours. Cell lysates are prepared as follows: media was removed and replaced with 150 μL/well 0.2 N NaOH with 1% Igepal CA 630 or NP-40. Plates were incubated up to 14 days at room temperature in a humidified chamber to prevent evaporation.
For the detection probe, a gel-purified, digoxigenin-labeled, 710-bp PCR fragment of the HSV UL-15 sequence was utilized. PCR conditions included 0.5 μM primers, 180 μM dTTP, 20 μM dUTP-digoxigenin (Boehringer Mannheim 1558706), 200 μM each of dATP, dCTP, and dGTP, 1×PCR Buffer II (Perkin Elmer), 2.5 mM MgCl2, 0.025 units/μL of AmpliTaq Gold polymerase (Perkin Elmer), and 5 ng of gel-purified HSV DNA per 100 μL. Extension conditions were 10 min at 95° C., followed by 30 cycles of 95° C. for 1 min, 55° C. for 30 sec, and 72° C. for 2 min. The amplification was completed with a 10-min incubation at 72° C. Primers were selected to amplify a 728 bp probe spanning a section of the HSV1 UL15 open reading frame (nucleotides 249–977). Single-stranded transcripts were purified with Promega M13 Wizard kits. The final product was mixed 1:1 with a mixture of 6 M GuSCN, 100 mM EDTA and 200 μg/mL herring sperm DNA and stored at 4° C.
The capture DNA plasmid (HSV UL13 region in pUC) was linearized by cutting with Xba I, denatured for 15 min at 95° C. and diluted immediately into Reacti-Bind DNA Coating Solution (Pierce, 17250, diluted 1:1 with TE buffer, pH 8) at 1 ng/μL 75 μL/well were added to Corning (#3922 or 9690) white 96-well plates and incubated at room temperature for at least 4 hrs before washing twice with 300 μL/well 0.2×SSC/0.05% Tween-20 (SSC/T buffer). The plates were then incubated overnight at room temperature with 150 μL/well 0.2 N NaOH, 1% IGEPAL and 10 μg/mL herring sperm DNA.
Twenty-seven (27) μL of cell lysate was combined with 45 μL of hybridization solution (final concentration: 3M GuSCN, 50 mM EDTA, 100 μg/ml salmon sperm DNA, 5× Denhardt's solution, 0.25×APE, and 5 ng of the digoxigenin-labeled detection probe). APE is 1.5 M NH4-acetate, 0.15 M ammonium phosphate monobasic, and 5 mM EDTA adjusted to pH 6.0. Mineral oil (50 μL) was added to prevent evaporation. The hybridization plates were incubated at 95° C. for 10 minutes to denature the DNA, then incubated at 42° C. overnight The wells were washed 6× with 300 μL/well SSC/T buffer then incubated with 75 μL/well anti-digoxigenin-HRP-conjugated antibody (Boehringer Mannheim 1207733, 1:5000 in TE) for 30 min at room temperature. The wells were washed 6× with 300 μL/well with PBS/0.05% Tween-20 before 75 μL/well SuperSignal LBA substrate (Pierce) was added. The plates were incubated at room temperature for 30 minutes and chemiluminescence was measured in a Wallac Victor reader.
The following results were obtained for HSV-1.
In turn, `Fc1ccc(-c2nn3c(NC4CCCC4)cccc3c2-c2ccnc(Nc3ccccc3)n2)cc1` [Example 1, 3-(2-Anilino-4-pyrimidinyl)-N-cyclopentyl-2-(4-fluorophenyl)pyrazolo[1,5-α]pyridin-7-amine] showed a negative-log IC50 (pIC50) of 6.30. On to `COc1cc(Nc2nccc(-c3c(-c4ccc(F)cc4)nn4c(NC5CCCC5)cccc34)n2)cc(OC)c1OC` [Example 2, N-Cyclopentyl-2-(4-fluorophenyl)-3-[2-(3,4,5-trimethoxyanilino)-4-pyrimidinyl]pyrazolo[1,5-α]pyridin-7-amine], for which the pIC50 was 6.40.

Consider `COc1ccc(Nc2nccc(-c3c(-c4ccc(F)cc4)nn4c(NC5CCCC5)cccc34)n2)cc1` [Example 3, N-Cyclopentyl-2-(4-fluorophenyl)-3-[2-(4-methoxyanilino)-4-pyrimidinyl]pyrazolo[1,5-α]pyridin-7-amine], for which the pIC50 was 5.90.

`Fc1ccc(Nc2nccc(-c3c(-c4ccc(F)cc4)nn4c(NC5CCCC5)cccc34)n2)cc1` [Example 4, N-Cyclopentyl-3-[2-(4-fluoroanilino)-4-pyrimidinyl]-2-(4-fluorophenyl)pyrazolo[1,5-α]pyridin-7-amine] showed a pIC50 of 6.22. As for `COc1ccc(-c2nn3c(NC4CCCC4)cccc3c2-c2ccnc(Nc3cccc(C(=O)c4ccccc4)c3)n2)cc1` [Example 5, [3-({4-[7-(Cyclopentylamino)-2-(4-methoxyphenyl)pyrazolo[1,5-α]pyridin-3-yl]-2-pyrimidinyl}amino)phenyl](phenyl)methanone], the figure is 5.55. As for `Fc1ccc(-c2nn3ccc(Cl)cc3c2-c2ccnc(Nc3ccccc3)n2)cc1` [Example 6, 4-[5-Chloro-2-(4-fluorophenyl)pyrazolo[1,5-α]pyridin-3-yl]-N-phenyl-2-pyrimidinamine], the pIC50 is 4.85. On to `Fc1ccc(-c2nn3ccc(NC4CCCC4)cc3c2-c2ccnc(Nc3ccccc3)n2)cc1` [Example 7, N-[3-(2-Anilino-4-pyrimidinyl)-2-(4-fluorophenyl)pyrazolo[1,5-α]pyridin-5-yl]-N-cyclopentylamine], for which the negative-log IC50 (pIC50) was 5.48. The figure for `Fc1ccc(-c2nn3c(NC4CCCC4)cc(Cl)cc3c2-c2ccnc(Nc3ccccc3)n2)cc1` [Example 8, 3-(2-Anilino-4-pyrimidinyl)-5-chloro-N-cyclopentyl-2-(4-fluorophenyl)pyrazolo[1,5-α]pyridin-7-amine] is 6.80; for `CCSc1cc(Cl)cc2c(-c3ccnc(Nc4ccccc4)n3)c(-c3ccc(F)cc3)nn12` [Example 9, N-{4-[5-Chloro-7-(ethylsulfanyl)-2-(4-fluorophenyl)pyrazolo[1,5-α]pyridin-3-yl]-2-pyrimidinyl}-N-phenylamine] it is 5.70. As for `COc1ccc(-c2nn3c(NC4CCCC4)cccc3c2-c2ccnc(Nc3cccc([N+](=O)[O-])c3)n2)cc1` [Example 10, N-Cyclopentyl-2-(4-methoxyphenyl)-3-[2-(3-nitroanilino)-4-pyrimidinyl]pyrazolo[1,5-α]pyridin-7-amine], the figure is 6.00; as for `COc1ccc(-c2nn3c(NC4CCCC4)cccc3c2-c2ccnc(Nc3cccc(CO)c3)n2)cc1` [Example 11, [3-({4-[7-(Cyclopentylamino)-2-(4-methoxyphenyl)pyrazolo[1,5-α]pyridin-3-yl]-2-pyrimidinyl}amino)phenyl]methanol], 6.15. The figure for `COc1ccc(-c2nn3c(NC4CCCC4)cccc3c2-c2ccnc(Nc3cccc(N)c3)n2)cc1` [Example 12, N^1-{4-[7-(Cyclopentylamino)-2-(4-methoxyphenyl)pyrazolo[1,5-α]pyridin-3-yl]-2-pyrimidinyl}-1,3-benzenediamine] is 6.15; for `COc1ccc(-c2nn3c(NC4CCCC4)cccc3c2-c2ccnc(Nc3cccc(N=[N+]=[N-])c3)n2)cc1` [Example 13, 3-[2-(3-Azidoanilino)-4-pyrimidinyl]-N-cyclopentyl-2-(4-methoxyphenyl)pyrazolo[1,5-α]pyridin-7-amine] it is 6.10.

In general, pIC50 refers to the negative decadic logarithm of the IC50, by convention in mol/L. Read a low pIC50 as a high IC50.
